Values of other authors as cited in patent US20160101140A1, “Method for Processing Rosaceous Kernels” (priority 2014, published 2016).

Test system: tumors
Conditions: finding of Sugiura

N#C[C@H](O[C@@H]1O[C@H](CO[C@@H]2O[C@H](CO)[C@@H](O)[C@H](O)[C@H]2O)[C@@H](O)[C@H](O)[C@H]1O)c1ccccc1 [Vit B17, amygdalin]
occurrence of a cancer: can inhibit an occurrence of a cancer | pain caused by the cancer: can lessen the pain caused by the cancer | anti-cancer activity (background section): had anti-cancer activity | inhibition of secondary tumors (mice): inhibited secondary tumors in mice
